We go through 26 compounds from patent US8088761B2, “Enzyme inhibitors” (Cancer Research Technology Limited, priority 2005, dated 2012).

The target of one experiment is T1, Aurora-A (Homo sapiens, UniProt O14965).
T1 sequence (O14965 1-403): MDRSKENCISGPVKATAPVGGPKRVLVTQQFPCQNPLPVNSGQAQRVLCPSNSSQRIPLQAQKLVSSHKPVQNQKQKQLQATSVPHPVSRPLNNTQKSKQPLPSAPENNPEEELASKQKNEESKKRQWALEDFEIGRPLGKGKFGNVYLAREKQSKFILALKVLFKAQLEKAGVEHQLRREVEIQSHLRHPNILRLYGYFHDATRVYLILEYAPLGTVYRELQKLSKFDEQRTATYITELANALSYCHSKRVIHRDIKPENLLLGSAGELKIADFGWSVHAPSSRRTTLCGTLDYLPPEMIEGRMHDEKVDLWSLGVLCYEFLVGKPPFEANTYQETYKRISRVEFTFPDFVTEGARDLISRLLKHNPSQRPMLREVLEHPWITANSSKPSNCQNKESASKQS
The experiment in a line: Flashplate Aurora A enzyme inhibition assay. The experiment is classed as biochemical. Conditions: read-out: Aurora-A inhibition. Summed up: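 This is a radiometric Flashplate format: plates were precoated with DTT, and compound (in 2% DMSO) was mixed with kinase buffer (pH 7.5 Tris, MgCl2, NaCl) containing 1 mM MBP, 20 μM ATP and ^33P-ATP. The reaction was started with 250 ng Aurora-A per well and incubated 2 h at RT. It was then stopped by 10 mM sodium pyrophosphate washing, and plates were scintillation-counted.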

A further experiment concerns HCT116 cells. In words: Cell viability assay (MTT) in HCT116 cell line. Format: cell-based. Conditions: Homo sapiens, HCT-116, 72 hrs, IC50 range, read-out: HCT116 cell growth inhibition. The gist of the method:
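MTT read-out (4 hrs, 37 °C, DMSO extraction) following 72 hrs of treatment with 0-50 μM Aurora inhibitor. HCT116 cells were plated a day earlier and tested in triplicate; IC50 derived from the curve.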

The structures appear in SMILES notation. Like-named read-outs stand apart in the source and are kept apart here.

Consider `COc1ccc(-c2nc3c(N4CCN(Cc5coc(C(C)C)n5)CC4)c(Br)cnc3[nH]2)cc1` [Example 145, 4-((4-(6-bromo-2-(4-methoxyphenyl)-3H-imidazo[4,5-b]pyridin-7-yl)piperazin-1-yl)methyl)-2-isopropyloxazole], for which the IC50 is less than 0.5 µM on Aurora-A (Flashplate assay, IC50 range) and less than 0.5 µM in the experiment on HCT116 cells.
On to `COc1ccc(-c2nc3c(N4CCN(Cc5ccc(F)cc5)CC4)c(Br)cnc3[nH]2)cc1` [Example 147, 6-Bromo-7-(4-(4-fluorobenzyl)piperazin-1-yl)-2-(4-methoxyphenyl)-3H-imidazo[4,5-b]pyridine], for which the IC50 was less than 0.5 µM at Aurora-A (Flashplate assay, IC50 range) and 2 to 50 µM with HCT116 cells.
For `Fc1ccc(CN2CCN(c3c(Br)cnc4[nH]c(-c5ccc(CN6CCOCC6)cc5)nc34)CC2)cc1` [Example 148, 4-(4-(6-Bromo-7-(4-(4-fluorobenzyl)piperazin-1-yl)-3H-imidazo[4,5-b]pyridin-2-yl)benzyl)morpholine], the IC50 at Aurora-A (Flashplate assay, IC50 range) is less than 0.5 µM; in the experiment with HCT116 cells, 0.5 to 2 µM.
The like results for `COc1ccc(-c2nc3c(N4CCN(CC5CCC5)CC4)c(Br)cnc3[nH]2)cc1` [Example 149, 6-Bromo-7-(4-(cyclobutylmethyl)piperazin-1-yl)-2-(4-methoxyphenyl)-3H-imidazo[4,5-b]pyridine] were, in that order, less than 0.5 µM and less than 0.5 µM.
Turning to `Brc1cnc2[nH]c(-c3ccc(CN4CCOCC4)cc3)nc2c1N1CCN(CC2CCC2)CC1` [Example 150, 4-(4-(6-Bromo-7-(4-(cyclobutylmethyl)piperazin-1-yl)-3H-imidazo[4,5-b]pyridin-2-yl)benzyl)morpholine], the IC50 is less than 0.5 µM on Aurora-A (Flashplate assay, IC50 range) and less than 0.5 µM in the experiment with HCT116 cells.
Turning to `Brc1cnc2[nH]c(-c3ccc(CN4CCOCC4)cc3)nc2c1N1CCN(Cc2nccs2)CC1` [Example 152, 4-(4-(6-Bromo-7-(4-(thiazol-2-ylmethyl)piperazin-1-yl)-3H-imidazo[4,5-b]pyridin-2-yl)benzyl)morpholine], the IC50 at Aurora-A (Flashplate assay, IC50 range) is less than 0.5 µM; in the experiment with HCT116 cells, 0.5 to 2 µM.
With `COc1ccc(-c2nc3c(N4CCN(Cc5cscn5)CC4)c(Br)cnc3[nH]2)cc1` [Example 154, 4-((4-(6-Bromo-2-(4-methoxyphenyl)-3H-imidazo[4,5-b]pyridin-7-yl)piperazin-1-yl)methyl)thiazole], the IC50 on Aurora-A and in the experiment on HCT116 cells was less than 0.5 µM in each case.
With `CC(C)c1nc(CN2CCN(c3c(Br)cnc4[nH]c(-c5ccc(CN6CCOCC6)cc5)nc34)CC2)cs1` [Example 155, 4-(4-(6-Bromo-7-(4-((2-isopropylthiazol-4-yl)methyl)piperazin-1-yl)-3H-imidazo[4,5-b]pyridin-2-yl)benzyl)morpholine], the IC50 at Aurora-A (Flashplate assay, IC50 range) is less than 0.5 µM; in the experiment on HCT116 cells it was 2 to 50 µM.
Take `Cc1nc(CN2CCN(c3c(Br)cnc4[nH]c(-c5ccc(CN6CCOCC6)cc5)nc34)CC2)cs1` [Example 156, 4-(4-(6-Bromo-7-(4-((2-methylthiazol-4-yl)methyl)piperazin-1-yl)-3H-imidazo[4,5-b]pyridin-2-yl)benzyl)morpholine]: the IC50 is less than 0.5 µM on Aurora-A (Flashplate assay, IC50 range) and less than 0.5 µM in the experiment with HCT116 cells.
Regarding `Cc1nc(CN2CCN(c3c(Br)cnc4[nH]c(-c5ccc(N6CCOCC6)cc5)nc34)CC2)cs1` [Example 159, 4-(4-(6-Bromo-7-(4-((2-methylthiazol-4-yl)methyl)piperazin-1-yl)-3H-imidazo[4,5-b]pyridin-2-yl)phenyl)morpholine], the IC50 is less than 0.5 µM at Aurora-A (Flashplate assay, IC50 range) and 0.5 to 2 µM in the experiment with HCT116 cells.
On to `Brc1cnc2[nH]c(-c3ccc(CN4CCOCC4)cc3)nc2c1N1CCN(Cc2cscn2)CC1` [Example 160, 4-(4-(6-Bromo-7-(4-(thiazol-4-ylmethyl)piperazin-1-yl)-3H-imidazo[4,5-b]pyridin-2-yl)benzyl)morpholine], for which the IC50 on Aurora-A (Flashplate assay, IC50 range) was less than 0.5 µM; in the experiment with HCT116 cells, less than 0.5 µM.
On to `Cc1nc(CN2CCN(c3c(Br)cnc4[nH]c(-c5ccc(-n6cccn6)cc5)nc34)CC2)cs1` [Example 161, 4-((4-(2-(4-(1H-Pyrazol-1-yl)phenyl)-6-bromo-3H-imidazo[4,5-b]pyridin-7-yl)piperazin-1-yl)methyl)-2-methylthiazole], for which the IC50 on Aurora-A (Flashplate assay, IC50 range) was less than 0.5 µM; in the experiment with HCT116 cells it was 2 to 50 µM.
Regarding `Cc1nc(CN2CCN(c3c(Br)cnc4[nH]c(-c5ccc(N6CCNCC6)cc5)nc34)CC2)cs1` [Example 163, 4-((4-(6-Bromo-2-(4-(piperazin-1-yl)phenyl)-3H-imidazo[4,5-b]pyridin-7-yl)piperazin-1-yl)methyl)-2-methylthiazole], the IC50 at Aurora-A (Flashplate assay, IC50 range) is less than 0.5 µM; in the experiment on HCT116 cells, less than 0.5 µM.
With `Cc1nc(CN2CCN(c3c(Br)cnc4[nH]c(-c5ccc(CN6CCNCC6)cc5)nc34)CC2)cs1` [Example 164, 4-((4-(6-Bromo-2-(4-(piperazin-1-ylmethyl)phenyl)-3H-imidazo[4,5-b]pyridin-7-yl)piperazin-1-yl)methyl)-2-methylthiazole], the IC50 is less than 0.5 µM at Aurora-A (Flashplate assay, IC50 range) and less than 0.5 µM in the experiment on HCT116 cells.
On to `COc1ccc(-c2nc3c(N4CCN(Cc5cncn5C)CC4)c(Br)cnc3[nH]2)cc1` [Example 165, 6-Bromo-2-(4-methoxyphenyl)-7-(4-((1-methyl-1H-imidazol-5-yl)methyl)piperazin-1-yl)-3H-imidazo[4,5-b]pyridine], for which the IC50 is less than 0.5 µM at Aurora-A (Flashplate assay, IC50 range) and 0.5 to 2 µM in the experiment on HCT116 cells.
The like results for `Cn1ccnc1CN1CCN(c2c(Br)cnc3[nH]c(-c4ccc(CN5CCOCC5)cc4)nc23)CC1` [Example 166, 4-(4-(6-Bromo-7-(4-((1-methyl-1H-imidazol-2-yl)methyl)piperazin-1-yl)-3H-imidazo[4,5-b]pyridin-2-yl)benzyl)morpholine] were, in that order, less than 0.5 µM and 0.5 to 2 µM.
On to `COc1ccc(-c2nc3c(N4CCN(Cc5nccn5C)CC4)c(Br)cnc3[nH]2)cc1` [Example 167, 6-Bromo-2-(4-methoxyphenyl)-7-(4-((1-methyl-1H-imidazol-2-yl)methyl)piperazin-1-yl)-3H-imidazo[4,5-b]pyridine], for which the IC50 at Aurora-A (Flashplate assay, IC50 range) was less than 0.5 µM; in the experiment on HCT116 cells it was 0.5 to 2 µM.
For the compound `COc1ccc(-c2nc3c(N4CCN(Cc5cn(C)cn5)CC4)c(Br)cnc3[nH]2)cc1` [Example 168, 6-Bromo-2-(4-methoxyphenyl)-7-(4-((1-methyl-1H-imidazol-4-yl)methyl)piperazin-1-yl)-3H-imidazo[4,5-b]pyridine], the IC50 at Aurora-A (Flashplate assay, IC50 range) was less than 0.5 µM; in the experiment with HCT116 cells, 2 to 50 µM.
For `Cn1cncc1CN1CCN(c2c(Br)cnc3[nH]c(-c4ccc(CN5CCOCC5)cc4)nc23)CC1` [Example 169, 4-(4-(6-Bromo-7-(4-((1-methyl-1H-imidazol-5-yl)methyl)piperazin-1-yl)-3H-imidazo[4,5-b]pyridin-2-yl)benzyl)morpholine], in that order: less than 0.5 µM and 0.5 to 2 µM.
Take `COc1ccc(-c2nc3c(N4CCN(Cc5cncs5)CC4)c(Br)cnc3[nH]2)cc1` [Example 170, 5-((4-(6-Bromo-2-(4-methoxyphenyl)-3H-imidazo[4,5-b]pyridin-7-yl)piperazin-1-yl)methyl)thiazole]: the IC50 was less than 0.5 µM at Aurora-A (Flashplate assay, IC50 range) and 0.5 to 2 µM in the experiment with HCT116 cells.
For `Brc1cnc2[nH]c(-c3ccc(CN4CCOCC4)cc3)nc2c1N1CCN(Cc2cncs2)CC1` [Example 171, 4-(4-(6-Bromo-7-(4-(thiazol-5-ylmethyl)piperazin-1-yl)-3H-imidazo[4,5-b]pyridin-2-yl)benzyl)morpholine], in that order: less than 0.5 µM and 0.5 to 2 µM.
As for `Cc1nc(CN2CCN(c3c(Cl)cnc4[nH]c(-c5ccc(CN6CCOCC6)cc5)nc34)CC2)cs1` [Example 172, 4-(4-(6-Chloro-7-(4-((2-methylthiazol-4-yl)methyl)piperazin-1-yl)-3H-imidazo[4,5-b]pyridin-2-yl)benzyl)morpholine], the IC50 on Aurora-A (Flashplate assay, IC50 range) was less than 0.5 µM; in the experiment with HCT116 cells it was 0.5 to 2 µM.
The like results for `Cc1nc(CN2CCN(c3c(Cl)cnc4[nH]c(-c5ccc(Cn6cccn6)cc5)nc34)CC2)cs1` [Example 173, 4-((4-(2-(4-((1H-Pyrazol-1-yl)methyl)phenyl)-6-chloro-3H-imidazo[4,5-b]pyridin-7-yl)piperazin-1-yl)methyl)-2-methylthiazole] were, in that order, less than 0.5 µM and less than 0.5 µM.
The like results for `Cc1nc(CN2CCN(c3c(Cl)cnc4[nH]c(-c5ccc(CN6CCNCC6)cc5)nc34)CC2)cs1` [Example 175, 4-((4-(6-Chloro-2-(4-(piperazin-1-ylmethyl)phenyl)-3H-imidazo[4,5-b]pyridin-7-yl)piperazin-1-yl)methyl)-2-methylthiazole] were, in that order, less than 0.5 µM and less than 0.5 µM.
The like results for `CN(C)c1ccc(-c2nc3c(N4CCN(CCc5ccccc5)CC4)c(Cl)cnc3[nH]2)cc1` [Example 176, 4-(6-Chloro-7-(4-phenethylpiperazin-1-yl)-3H-imidazo[4,5-b]pyridin-2-yl)-N,N-dimethylaniline] were, in that order, 0.5 to 2 µM and 2 to 50 µM.
Regarding `Clc1cnc2[nH]c(-c3ccc(CN4CCOCC4)cc3)nc2c1N1CCN(Cc2cscn2)CC1` [Example 177, 4-(4-(6-Chloro-7-(4-(thiazol-4-ylmethyl)piperazin-1-yl)-3H-imidazo[4,5-b]pyridin-2-yl)benzyl)morpholine], the IC50 on Aurora-A (Flashplate assay, IC50 range) is less than 0.5 µM; in the experiment on HCT116 cells, 0.5 to 2 µM.
